Test results taken from the NIST ThermoML archive (doi:10.1016/j.fluid.2016.02.031).

Assay: xn = mol fraction of the nth substance listed
Conditions: 100 kPa, Liquid; for viscosity: Concentric cylinders viscometry; for mass density: Vibrating tube method

OCCCO [propan-1,3-diol] + CCC(C)=O
Conditions | mass density [kg/m3] | viscosity [mPa·s]
288.15 K, x1 = 0.1052 | 834.263 | 0.5783
288.15 K, x1 = 0.2004 | 855.981 | 0.8238
288.15 K, x1 = 0.3002 | 879.545 | 1.258
288.15 K, x1 = 0.4003 | 904.311 | 2.132
288.15 K, x1 = 0.4999 | 929.443 | 3.633
288.15 K, x1 = 0.5992 | 954.483 | 6.313
288.15 K, x1 = 0.6992 | 979.932 | 11.18
288.15 K, x1 = 0.7989 | 1003.76 | 20.31
288.15 K, x1 = 0.8998 | 1028.39 | 37.46
288.15 K, x1 = 1 | 1055.96 | 68.06
293.15 K, x1 = 0.1052 | 829.229 | 0.5513
293.15 K, x1 = 0.2004 | 851.106 | 0.7652
293.15 K, x1 = 0.3002 | 874.858 | 1.144
293.15 K, x1 = 0.4003 | 899.864 | 1.889
293.15 K, x1 = 0.4999 | 925.2 | 3.143
293.15 K, x1 = 0.5992 | 950.438 | 5.35
293.15 K, x1 = 0.6992 | 976.1 | 9.291
293.15 K, x1 = 0.7989 | 1000.12 | 16.48
293.15 K, x1 = 0.8998 | 1024.96 | 29.8
293.15 K, x1 = 1 | 1052.87 | 52.75
298.15 K, x1 = 0.1052 | 824.172 | 0.5185
298.15 K, x1 = 0.2004 | 846.22 | 0.714
298.15 K, x1 = 0.3002 | 870.166 | 1.046
298.15 K, x1 = 0.4003 | 895.391 | 1.688
298.15 K, x1 = 0.4999 | 920.936 | 2.744
298.15 K, x1 = 0.5992 | 946.376 | 4.578
298.15 K, x1 = 0.6992 | 972.256 | 7.804
298.15 K, x1 = 0.7989 | 996.448 | 13.57
298.15 K, x1 = 0.8998 | 1021.51 | 24.01
298.15 K, x1 = 1 | 1049.76 | 41.97
303.15 K, x1 = 0.1052 | 819.09 | 0.4891
303.15 K, x1 = 0.2004 | 841.328 | 0.6674
303.15 K, x1 = 0.3002 | 865.461 | 0.9604
303.15 K, x1 = 0.4003 | 890.9 | 1.517
303.15 K, x1 = 0.4999 | 916.653 | 2.414
303.15 K, x1 = 0.5992 | 942.296 | 3.957
303.15 K, x1 = 0.6992 | 968.392 | 6.624
303.15 K, x1 = 0.7989 | 992.685 | 11.3
303.15 K, x1 = 0.8998 | 1018 | 19.67
303.15 K, x1 = 1 | 1046.64 | 33.56
308.15 K, x1 = 0.1052 | 813.976 | 0.4633
308.15 K, x1 = 0.2004 | 836.391 | 0.6247
308.15 K, x1 = 0.3002 | 860.732 | 0.8841
308.15 K, x1 = 0.4003 | 886.382 | 1.379
308.15 K, x1 = 0.4999 | 912.346 | 2.141
308.15 K, x1 = 0.5992 | 938.196 | 3.447
308.15 K, x1 = 0.6992 | 964.512 | 5.663
308.15 K, x1 = 0.7989 | 989.056 | 9.517
308.15 K, x1 = 0.8998 | 1014.59 | 16.21
308.15 K, x1 = 1 | 1043.5 | 27.15
313.15 K, x1 = 0.1052 | 808.832 | 0.4382
313.15 K, x1 = 0.2004 | 831.418 | 0.5847
313.15 K, x1 = 0.3002 | 855.978 | 0.8163
313.15 K, x1 = 0.4003 | 881.838 | 1.237
313.15 K, x1 = 0.4999 | 908.015 | 1.909
313.15 K, x1 = 0.5992 | 934.073 | 3.025
313.15 K, x1 = 0.6992 | 960.613 | 4.879
313.15 K, x1 = 0.7989 | 985.317 | 8.064
313.15 K, x1 = 0.8998 | 1011.06 | 13.49
313.15 K, x1 = 1 | 1040.35 | 22.22
318.15 K, x1 = 0.1052 | 803.661 | 0.4141
318.15 K, x1 = 0.2004 | 826.427 | 0.548
318.15 K, x1 = 0.3002 | 851.191 | 0.7557
318.15 K, x1 = 0.4003 | 877.271 | 1.127
318.15 K, x1 = 0.4999 | 903.664 | 1.711
318.15 K, x1 = 0.5992 | 929.93 | 2.671
318.15 K, x1 = 0.6992 | 956.69 | 4.237
318.15 K, x1 = 0.7989 | 981.556 | 6.885
318.15 K, x1 = 0.8998 | 1007.51 | 11.33
318.15 K, x1 = 1 | 1037.18 | 18.35
323.15 K, x1 = 0.1052 | 798.453 | 0.3908
323.15 K, x1 = 0.2004 | 821.409 | 0.5165
323.15 K, x1 = 0.3002 | 846.386 | 0.7008
323.15 K, x1 = 0.4003 | 872.674 | 1.03
323.15 K, x1 = 0.4999 | 899.282 | 1.542
323.15 K, x1 = 0.5992 | 925.759 | 2.372
323.15 K, x1 = 0.6992 | 952.744 | 3.702
323.15 K, x1 = 0.7989 | 977.808 | 5.939
323.15 K, x1 = 0.8998 | 1004.01 | 9.603
323.15 K, x1 = 1 | 1033.98 | 15.29
328.15 K, x1 = 0.1052 | 793.206 | 0.3682
328.15 K, x1 = 0.2004 | 816.363 | 0.484
328.15 K, x1 = 0.3002 | 841.54 | 0.6507
328.15 K, x1 = 0.4003 | 868.041 | 0.9438
328.15 K, x1 = 0.4999 | 894.87 | 1.393
328.15 K, x1 = 0.5992 | 921.56 | 2.121
328.15 K, x1 = 0.6992 | 948.774 | 3.257
328.15 K, x1 = 0.7989 | 974.119 | 5.165
328.15 K, x1 = 0.8998 | 1000.59 | 8.217
328.15 K, x1 = 1 | 1030.77 | 12.84
333.15 K, x1 = 0.1052 | 787.917 | 0.3461
333.15 K, x1 = 0.2004 | 811.298 | 0.4456
333.15 K, x1 = 0.3002 | 836.659 | 0.6058
333.15 K, x1 = 0.4003 | 863.375 | 0.8671
333.15 K, x1 = 0.4999 | 890.43 | 1.271
333.15 K, x1 = 0.5992 | 917.332 | 1.911
333.15 K, x1 = 0.6992 | 944.777 | 2.894
333.15 K, x1 = 0.7989 | 970.698 | 4.581
333.15 K, x1 = 0.8998 | 997.503 | 7.128
333.15 K, x1 = 1 | 1027.53 | 10.96
